Experiments:
PLK1 PBD (367-603) = molecular target: T1, PLK1 PBD (367-603) (Homo sapiens, UniProt P53350); test: Fluorescence polarization assay, PLK1 PBD; type: binding; details: Table 10; target not named at the place; read-out: in vitro binding IC50
T1 construct: PLK1 PBD (367-603) and PLK3 PBD (335-646) proteins were obtained from BPS Biosciences Inc; purchased BPS Biosciences Inc. (San Diego, CA)
Method: Materials were dissolved in DMSO (10 mM) and diluted from 10 nM to 600 μM (maximum of 6% DMSO tolerance in the assay). PLK1 PBD (367-603) and PLK3 PBD (335-646) proteins were obtained from BPS Biosciences Inc. (San Diego, CA); 17 ng PLK1 and 156 ng PLK3 were used per reaction. The fluorescein-tracer phospho-peptides (MAGPMQS[pT]PLNGAKK (SEQ ID NO: 1) for PLK1, and GPLATS[pT]PKNG (SEQ ID NO: 2) for PLK3) were used at a final concentration of 10 nM. Incubation was carried out at room temperature for 45 minutes. Fluorescence was measured using a DTX 880 plate reader and Multimode Analysis software (Beckman Coulter, Brea, CA). The polarization values in millipolarization (mP) units were measured at an excitation wavelength of 488 nm and an emission wavelength of 535 nm. Each data point was performed in triplicate for every experiment, and experiments were performed at least three times. An IC50 value for each compound was calculated from linear regression analysis of the plots.

[1] = test system: PC3 prostate cancer cells; test: MTT cell viability assay, PC3; type: cell-based; details: MTT, 72 hours
Method: PC3 prostate cancer cells were maintained in DMEM (Invitrogen™, Carlsebad, CA) supplemented with 10% FBS or Corning® Nu-serum™(BD™ Biosciences, Franklin Lakes, NJ) and 1% penicillin/streptomycin (Invitrogen™) in a humidified incubator and 5% CO2 at 37° C.
Exponentially growing cells were plated in 96-well dishes. Dose response curves were used to treat cells for 72 hours with inhibitors. Following the three-day treatment, cell viability was measured using the MTT (3-(4,5-dimethylthiazol-2-yl)-2,5-diphenyltetrazolium bromide) colorimetric assay. Cells were incubated for 3 hours with MTT allowing viable cells to metabolize the tetrazolium dye to a purple colored solution. Absorbance measurements (595 nm) were quantified using a DTX 880 plate reader and IC50 values were generated for FLIPs.

[2] = test system: SH-SY5Y neuroblastoma cells overexpressing PLK1; test: Cell viability assay in neuroblastoma cells; type: cell-based
Method: Abbapolin compounds activity was evaluated in neuroblastoma cells. […] Further, abbapolins induced PLK1 degradation in SH-SY5Y cells (FIG. 14-16).

[3] = test system: PC3 prostate cancer xenografts; test: PC3 prostate cancer xenograft study; type: in vivo, athymic nude mice
Method: (§1) The efficacy of promising abbapolin compounds were tested in multiple cancer cell lines. […] To do so, athymic nude mice were injected in their flanks with 2.7×10^6 PC3 prostate cancer cells. After the tumors established at 13 days, 5-8 mice per group were treated with 6359 and 6369 daily for 5 days (M-F) for a total of 15 days. […] This is in agreement with the PLK1 degradation in the xenograft tumor.

[4] = Tolerability in the PC3 xenograft study; type: in vivo, athymic nude mice
Method: as §1

[5] = Pharmacokinetics after oral gavage; type: in vivo, swiss webster mice
Method: FIG. 3 graphically illustrates pharmacokinetics of SCCP ID No. 6359 in swiss webster mice at a dosage of 50 mg/kg.
These reasonable PK values of the lead abbapolin compounds tested in vivo are promising and indicate optimization will lead to further improvements.

Solubility in PBS = type: physicochemical; details: expressed as IP dose
MOLT-4 = test: Single dose cell viability assay, MOLT-4; type: cell-based; details: MOLT-4 (Leukemia), single dose 10 μM
Method: (§2) Lead abbapolin compounds were tested in multiple cancer cell lines, including non-small cell lung cancer (NSCLC) cells, melanoma cells, colon cancer cells, central nervous system (CNS) cancer cells, prostate cancer cells, renal cancer cells, and breast cancer cells. Each of these cancer cells lines were sensitive to the lead abbapolin compounds in a cell viability assay, including 6184 (Table 3), 6277 (Table 4), 6279 (Table 5), 6355 (Table 6), 6359 (Table 7), 6369 (Table 8), and 6421 (Table 9).

RPMI-8226 = test: Single dose cell viability assay, RPMI-8226; type: cell-based; details: RPMI-8226 (Leukemia), single dose 10 μM
Method: as §2

HL-60(TB) = test: Single dose cell viability assay, HL-60(TB); type: cell-based; details: HL-60(TB) (Leukemia), single dose 10 μM
Method: as §2

PLK1 = PLK1 (Homo sapiens, UniProt P53350); test: PLK1 degradation in HeLa cells; type: cell-based; design: endogenous in cells; details: HeLa cell line, 24, 48 and 72 hours
Method: For example, PC3 cells were treated with varying dosages of abbapolin 6369, and percent of PLK1 degradation was measured at 24 hours (FIGS. 8A-8B). HeLa cells were treated with 25 μM abbapolin 6369, and time points shown in the assay were 24 hours, 48 hours, and 72 hours (FIGS. 9A-9B). PC3 cells were treated with varying dosages of abbapolin 6329, and percent of PLK1 degradation was measured at 24 hours (FIGS. […]). HeLa cells were treated with varying dosages of abbapolin 6329, and time points shown in the assay were 24 hours, 48 hours, and 72 hours (FIGS. 11A-11B).

[6] = 6359 100 mg/kg oral, 6369 40 mg/kg IP, 15 days

Sequence of PLK1 (P53350 whole entry): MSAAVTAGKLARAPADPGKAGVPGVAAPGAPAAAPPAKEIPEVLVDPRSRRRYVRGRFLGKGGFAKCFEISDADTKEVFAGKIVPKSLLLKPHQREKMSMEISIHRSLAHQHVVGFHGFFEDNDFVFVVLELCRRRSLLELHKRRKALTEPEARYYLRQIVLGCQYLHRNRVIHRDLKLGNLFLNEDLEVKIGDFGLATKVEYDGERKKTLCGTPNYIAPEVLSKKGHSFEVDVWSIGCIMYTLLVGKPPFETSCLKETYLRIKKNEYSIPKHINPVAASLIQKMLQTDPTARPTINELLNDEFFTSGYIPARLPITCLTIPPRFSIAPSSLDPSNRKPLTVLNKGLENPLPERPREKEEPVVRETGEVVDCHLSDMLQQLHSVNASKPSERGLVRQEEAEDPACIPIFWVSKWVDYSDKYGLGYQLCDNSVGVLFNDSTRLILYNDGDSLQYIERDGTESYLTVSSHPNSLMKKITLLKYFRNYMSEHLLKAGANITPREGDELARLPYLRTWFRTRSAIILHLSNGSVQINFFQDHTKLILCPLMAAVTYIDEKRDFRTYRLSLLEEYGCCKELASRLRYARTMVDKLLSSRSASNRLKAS
T1 sequence (P53350 367-603): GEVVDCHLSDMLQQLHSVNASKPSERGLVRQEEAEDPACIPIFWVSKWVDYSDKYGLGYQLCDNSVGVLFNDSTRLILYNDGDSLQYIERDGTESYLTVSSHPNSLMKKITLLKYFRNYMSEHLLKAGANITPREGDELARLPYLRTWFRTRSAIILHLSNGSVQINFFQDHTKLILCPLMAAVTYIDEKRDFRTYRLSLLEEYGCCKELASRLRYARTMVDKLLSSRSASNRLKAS

3-(4-octylbenzamido)phenyl phosphate [compound 6369]
IC50 (PLK1 PBD (367-603)): 115 µM | IC50 [1]: 2.3 ± 0.9 µM | IC50 [2]: 232 ± 55 µM | growth of PC3 tumors ([3]; 6359 100 mg/kg oral gavage, 6369 40 mg/kg IP, daily 5 days (M-F), total 15 days): slow the growth of PC3 tumors | PLK1 loss in the xenograft tumor ([3]; isolated PC3 xenograft tumors): significantly more PLK1 loss compared to PBS and 6359 | body weight [4, 6]: no loss of body weight | tolerability / toxicity [4, 6]: well tolerated | change in liver, kidney, and prostate weight ([4]; P>0.05): non-significant | blood levels ([5]; 50 mg/kg by oral gavage): measurable blood levels | oral absorption / PK ([5]; mouse, in vivo, po): low oral absorption | limit of solubility in PBS (Solubility in PBS): 40 mg/kg | Cells Remaining (%) (MOLT-4): 58.19% | Cells Remaining (%) (RPMI-8226): 39.13% | Cells Remaining (%) (HL-60(TB)): 54.82% | PLK1 degradation (PLK1): degradation of PLK1
